According to ChEMBL document CHEMBL5518185, “Design, synthesis and antitumor activity of 4-arylamine substituted pyrimidine derivatives as noncovalent EGFR inhibitors overcoming C797S mutation” (Eur J Med Chem, 2024):
Active and inactive are the calls of the source. The calls are words filed in the database; no cut-off is given here.

Experiments:
[1] = biological target: Proto-oncogene tyrosine-protein kinase Src (Homo sapiens) (UniProt P12931); test: Inhibition of Src (unknown origin) by HTRF assay relative to control; details: concentration not given here
HCC827 [2] = test: Induction of apoptosis in human HCC827 cells assessed as early apoptotic cells at 100 nM measured after 24 hrs by annexin V/PI staining based flu cytometry analysis (reference value: 3.2%); format: functional
HCC827 [3] = test: Inhibition of colony formation in human HCC827 cells at 10 to 30 nM measured after 14 days by crystal violet staining based analysis; format: functional, cell-based; details: dose 10-30 nM, time 14.0 day
HCC827 [4] = test: Induction of apoptosis in human HCC827 cells assessed as necrotic cells at 30 nM measured after 24 hrs by annexin V/PI staining based flu cytometry analysis (reference value: 7.34%); format: functional
[5] = biological target: Epidermal growth factor receptor (Homo sapiens, UniProt P00533); test: Inhibition of wild type EGFR (unknown origin) preincubated for 10 mins followed by substrate addition and measured after 50 mins in presence of ATP by HTRF assay
HCC827 [6] = test: Induction of apoptosis in human HCC827 cells assessed as activation of cleaved-caspase-3 level measured after 48 hrs by Western blot analysis; format: functional, cell-based; details: dose 10-400 nM
[7] = Toxicity in BALB/c nude mouse assessed as animal death at 10 to 50 mg/kg/day, po measured every three days for 21 days; format: organism-based; details: in vivo, 504 h, dose 10-50 mg/kg/day, time 21 day
HCC827 [8] = test: Induction of apoptosis in human HCC827 cells assessed as late apoptotic cells at 10 nM measured after 24 hrs by annexin V/PI staining based flu cytometry analysis (reference value: 5.50%); format: functional
[9] = Cytotoxicity against human 2BS cells assessed as inhibition of cell viability measured after 72 hrs by MTT assay; format: toxicity, cell-based
HCC827 [10] = test: Antitumor activity against human HCC827 cells xenografted in BALB/c nude mouse assessed as tumor growth inhibition at 10 mg/kg/day, po measured every three days for 21 days by vernier caliper based analysis relative to control; format: functional; details: HCC827, 504 h, time 21 day, read-out: TGI
HCC827 [11] = test: Induction of apoptosis in human HCC827 cells assessed as activation of PARP level measured after 48 hrs by Western blot analysis; format: functional, cell-based; details: dose 10-400 nM
HCC827 [12] = test: Induction of cell cycle arrest in human HCC827 cells assessed as accumulation of cells at S phase at 100 nM measured after 24 hrs by PI staining based flow cytometry analysis (reference value: 28.81%); format: functional
HCC827 [13] = test: Induction of cell cycle arrest in human HCC827 cells assessed as accumulation of cells at G2/M phase at 30 nM measured after 24 hrs by PI staining based flow cytometry analysis (reference value: 16.83%); format: functional
HCC827 [14] = test: Induction of cell cycle arrest in human HCC827 cells assessed as accumulation of cells at G0/G1 phase at 30 nM measured after 24 hrs by PI staining based flow cytometry analysis (reference value: 54.36%); format: functional
[15] = biological target: RAF proto-oncogene serine/threonine-protein kinase (Homo sapiens) (UniProt P04049); test: Inhibition of c-RAF (unknown origin) by HTRF assay relative to control; details: concentration not given here
[16] = test system: Epidermal growth factor receptor (Homo sapiens), P00533 [UNDEFINED MUTATION]; details: dose 100.0 nM
HCC827 [17] = test: Induction of cell cycle arrest in human HCC827 cells assessed as accumulation of cells at S phase at 10 nM measured after 24 hrs by PI staining based flow cytometry analysis (reference value: 28.81%); format: functional
HCC827 [18] = test: Induction of cell cycle arrest in human HCC827 cells assessed as accumulation of cells at S phase at 30 nM measured after 24 hrs by PI staining based flow cytometry analysis (reference value: 28.81%); format: functional
[19] = Toxicity in BALB/c nude mouse assessed as drug tolerability at 10 to 50 mg/kg/day, po measured every three days for 21 days; format: organism-based; details: in vivo, 504 h, dose 10-50 mg/kg/day, time 21 day
Homo sapiens = species: Homo sapiens; test: Inhibition of Akt (unknown origin) by HTRF assay relative to control; details: concentration not given here
HCC827 [20] = test: Induction of apoptosis in human HCC827 cells assessed as necrotic cells at 100 nM measured after 24 hrs by annexin V/PI staining based flu cytometry analysis (reference value: 7.34%); format: functional
[21] = biological target: Mast/stem cell growth factor receptor Kit (Homo sapiens) (UniProt P10721); test: Inhibition of c-kit (unknown origin) by HTRF assay relative to control; details: concentration not given here
[22] = biological target: Epidermal growth factor receptor (Homo sapiens, UniProt P00533, L858R/T790M); test: Inhibition of EGFR L858R/T790M (unknown origin) preincubated for 10 mins followed by substrate addition and measured after 50 mins in presence of ATP by HTRF assay
HCC827 [23] = test: Induction of apoptosis in human HCC827 cells assessed as late apoptotic cells at 30 nM measured after 24 hrs by annexin V/PI staining based flu cytometry analysis (reference value: 5.50%); format: functional
HCC827 [24] = test: Induction of apoptosis in human HCC827 cells assessed as necrotic cells at 10 nM measured after 24 hrs by annexin V/PI staining based flu cytometry analysis (reference value: 7.34%); format: functional
HCC827 [25] = test: Inhibition of colony formation in human HCC827 cells measured after 14 days by crystal violet staining based analysis; format: functional, cell-based; details: HCC827, 336 h
HCC827 [26] = test: Induction of apoptosis in human HCC827 cells assessed as viable cells at 100 nM measured after 24 hrs by annexin V/PI staining based flu cytometry analysis (reference value: 84.0%); format: functional; details: read-out: Activity
[27] = biological target: Proto-oncogene tyrosine-protein kinase ROS (Homo sapiens) (UniProt P08922); test: Inhibition of ROS (unknown origin) by HTRF assay relative to control; details: concentration not given here
HCC827 [28] = test: Induction of apoptosis in human HCC827 cells assessed as viable cells at 10 nM measured after 24 hrs by annexin V/PI staining based flu cytometry analysis (reference value: 84.0%); format: functional; details: read-out: Activity

Chain of Mast/stem cell growth factor receptor Kit (Homo sapiens) (P10721 whole entry): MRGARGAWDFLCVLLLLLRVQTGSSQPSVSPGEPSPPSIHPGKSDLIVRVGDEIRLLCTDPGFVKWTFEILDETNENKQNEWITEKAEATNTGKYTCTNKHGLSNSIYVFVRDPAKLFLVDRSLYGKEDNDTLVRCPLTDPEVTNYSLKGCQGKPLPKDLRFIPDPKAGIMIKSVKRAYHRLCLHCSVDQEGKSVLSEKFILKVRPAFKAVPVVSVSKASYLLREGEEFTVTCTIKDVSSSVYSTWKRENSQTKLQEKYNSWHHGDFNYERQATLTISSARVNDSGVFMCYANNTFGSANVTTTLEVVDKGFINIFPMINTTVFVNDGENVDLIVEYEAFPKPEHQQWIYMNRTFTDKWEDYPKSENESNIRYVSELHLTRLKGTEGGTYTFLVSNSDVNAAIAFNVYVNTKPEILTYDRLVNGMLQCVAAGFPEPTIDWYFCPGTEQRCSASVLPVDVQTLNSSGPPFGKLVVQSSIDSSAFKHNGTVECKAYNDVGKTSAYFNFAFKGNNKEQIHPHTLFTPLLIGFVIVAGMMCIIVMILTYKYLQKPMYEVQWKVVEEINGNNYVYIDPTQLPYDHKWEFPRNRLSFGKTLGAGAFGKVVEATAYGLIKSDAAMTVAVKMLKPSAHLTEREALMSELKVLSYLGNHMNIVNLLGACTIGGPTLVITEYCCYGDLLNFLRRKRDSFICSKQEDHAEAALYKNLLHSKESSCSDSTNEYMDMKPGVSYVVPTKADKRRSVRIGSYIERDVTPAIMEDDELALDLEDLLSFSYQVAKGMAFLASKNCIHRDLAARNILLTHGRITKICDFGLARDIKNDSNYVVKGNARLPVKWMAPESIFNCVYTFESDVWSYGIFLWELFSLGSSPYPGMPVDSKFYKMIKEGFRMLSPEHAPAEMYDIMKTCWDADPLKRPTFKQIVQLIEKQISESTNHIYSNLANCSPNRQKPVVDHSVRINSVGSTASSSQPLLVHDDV
Chain of Proto-oncogene tyrosine-protein kinase Src (Homo sapiens) (P12931 2-536 limits assumed): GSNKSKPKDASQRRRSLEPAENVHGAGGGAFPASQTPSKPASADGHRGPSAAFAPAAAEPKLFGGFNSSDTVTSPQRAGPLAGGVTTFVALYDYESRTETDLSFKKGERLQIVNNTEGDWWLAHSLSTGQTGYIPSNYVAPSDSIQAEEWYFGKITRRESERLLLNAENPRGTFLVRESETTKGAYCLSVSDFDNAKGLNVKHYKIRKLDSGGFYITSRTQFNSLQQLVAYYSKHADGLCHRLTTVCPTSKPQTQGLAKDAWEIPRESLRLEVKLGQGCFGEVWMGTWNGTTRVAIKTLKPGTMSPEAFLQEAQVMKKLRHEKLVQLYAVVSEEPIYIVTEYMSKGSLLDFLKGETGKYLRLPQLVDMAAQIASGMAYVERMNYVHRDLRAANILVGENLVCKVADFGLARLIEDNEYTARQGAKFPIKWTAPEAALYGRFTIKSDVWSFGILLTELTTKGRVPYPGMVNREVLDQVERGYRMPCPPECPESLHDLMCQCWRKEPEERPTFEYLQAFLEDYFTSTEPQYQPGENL
Chain of Epidermal growth factor receptor (Homo sapiens, UniProt P00533, L858R/T790M) (P00533 25-1210 T790M/L858R limits assumed): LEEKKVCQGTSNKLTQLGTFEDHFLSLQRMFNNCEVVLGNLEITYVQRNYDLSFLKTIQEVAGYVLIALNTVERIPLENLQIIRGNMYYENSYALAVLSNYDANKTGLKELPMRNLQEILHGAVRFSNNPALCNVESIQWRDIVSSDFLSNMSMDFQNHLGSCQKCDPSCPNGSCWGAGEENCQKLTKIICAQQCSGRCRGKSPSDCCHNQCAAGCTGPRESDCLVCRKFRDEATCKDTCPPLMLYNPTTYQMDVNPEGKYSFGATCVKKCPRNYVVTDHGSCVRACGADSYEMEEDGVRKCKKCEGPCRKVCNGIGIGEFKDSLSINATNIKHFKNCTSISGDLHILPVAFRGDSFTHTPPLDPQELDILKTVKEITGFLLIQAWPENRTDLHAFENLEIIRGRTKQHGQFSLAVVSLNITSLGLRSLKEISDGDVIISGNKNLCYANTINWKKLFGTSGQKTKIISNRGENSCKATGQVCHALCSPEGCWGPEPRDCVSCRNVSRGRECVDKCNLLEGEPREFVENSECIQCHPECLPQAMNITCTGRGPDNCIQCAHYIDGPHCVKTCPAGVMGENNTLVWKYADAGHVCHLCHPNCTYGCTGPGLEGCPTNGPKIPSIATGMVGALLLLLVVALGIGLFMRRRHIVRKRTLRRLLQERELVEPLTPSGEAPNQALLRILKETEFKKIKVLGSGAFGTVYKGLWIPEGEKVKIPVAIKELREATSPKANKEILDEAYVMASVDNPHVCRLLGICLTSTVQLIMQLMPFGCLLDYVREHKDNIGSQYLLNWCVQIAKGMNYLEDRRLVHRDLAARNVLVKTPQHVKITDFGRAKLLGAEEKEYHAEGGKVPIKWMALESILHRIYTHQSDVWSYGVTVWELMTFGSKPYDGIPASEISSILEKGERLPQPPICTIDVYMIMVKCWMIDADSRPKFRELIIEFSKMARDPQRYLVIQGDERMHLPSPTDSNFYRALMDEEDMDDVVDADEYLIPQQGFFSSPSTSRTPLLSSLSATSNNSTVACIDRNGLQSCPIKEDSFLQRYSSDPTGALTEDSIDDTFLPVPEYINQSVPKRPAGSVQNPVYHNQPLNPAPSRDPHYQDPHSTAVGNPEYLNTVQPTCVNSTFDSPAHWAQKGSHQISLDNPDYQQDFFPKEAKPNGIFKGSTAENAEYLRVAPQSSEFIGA
Chain of Epidermal growth factor receptor (Homo sapiens, UniProt P00533) (P00533 whole entry): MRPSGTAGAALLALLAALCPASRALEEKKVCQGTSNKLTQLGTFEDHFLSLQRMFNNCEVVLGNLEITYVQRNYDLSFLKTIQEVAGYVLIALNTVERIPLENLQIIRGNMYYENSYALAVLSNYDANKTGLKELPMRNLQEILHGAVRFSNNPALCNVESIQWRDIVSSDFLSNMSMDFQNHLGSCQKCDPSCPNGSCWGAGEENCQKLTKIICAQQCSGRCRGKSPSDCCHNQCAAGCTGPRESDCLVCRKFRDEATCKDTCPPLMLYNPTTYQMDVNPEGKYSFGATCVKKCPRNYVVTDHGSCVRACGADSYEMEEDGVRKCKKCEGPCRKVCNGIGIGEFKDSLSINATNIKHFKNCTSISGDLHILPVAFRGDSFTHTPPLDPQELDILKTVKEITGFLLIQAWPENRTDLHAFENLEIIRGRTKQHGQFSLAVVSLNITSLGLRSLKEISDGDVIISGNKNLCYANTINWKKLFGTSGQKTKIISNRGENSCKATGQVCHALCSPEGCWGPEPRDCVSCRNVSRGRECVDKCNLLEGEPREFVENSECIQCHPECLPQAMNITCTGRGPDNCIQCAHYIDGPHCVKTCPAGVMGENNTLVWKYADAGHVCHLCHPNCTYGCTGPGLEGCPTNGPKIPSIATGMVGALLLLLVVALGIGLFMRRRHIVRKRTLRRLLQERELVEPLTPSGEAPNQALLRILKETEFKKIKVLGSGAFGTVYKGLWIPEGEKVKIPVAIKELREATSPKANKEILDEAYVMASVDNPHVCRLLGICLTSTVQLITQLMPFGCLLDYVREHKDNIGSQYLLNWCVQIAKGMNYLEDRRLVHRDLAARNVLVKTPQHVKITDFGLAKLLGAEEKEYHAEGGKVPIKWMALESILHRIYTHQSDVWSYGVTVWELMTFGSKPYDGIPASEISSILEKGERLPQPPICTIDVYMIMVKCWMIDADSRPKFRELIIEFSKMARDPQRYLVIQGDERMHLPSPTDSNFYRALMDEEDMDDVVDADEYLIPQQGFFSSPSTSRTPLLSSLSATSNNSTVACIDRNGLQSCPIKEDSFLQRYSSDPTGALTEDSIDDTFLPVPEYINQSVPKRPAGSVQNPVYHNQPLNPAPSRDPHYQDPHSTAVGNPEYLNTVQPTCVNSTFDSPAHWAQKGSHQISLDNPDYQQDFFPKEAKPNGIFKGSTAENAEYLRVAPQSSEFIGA
Chain of Epidermal growth factor receptor (Homo sapiens), P00533 [UNDEFINED MUTATION] (P00533 whole entry, looked up, change not shown): as the sequence (P00533 whole entry) above

With `O=C(NO)c1sccc1Nc1nc(Nc2ccc(N3CCOCC3)cc2)ncc1Cl` the inhibition [1] was less than 70%, the Activity (HCC827 [2]) was 3.41% and the inhibition (HCC827 [3]) was “Active”. The Activity (HCC827 [4]) was 7.64%, the IC50 [5] was 16.2 nM and the Activity (HCC827 [6]) was “Dose-Dependent Effect”. For the same compound, the Activity [7] was “Non-Toxic”, the Activity (HCC827 [8]) was 6.53% and the IC50 at 72 h [9] was 24600 nM. For the same compound, the inhibition in vivo at 10 mg/kg/day (HCC827 [10]) was 50.6%, the Activity (HCC827 [11]) was “Dose-Dependent Effect” and the Activity (HCC827 [12]) was 9.64%. The Activity (HCC827 [13]) was 19.06%, the Activity (HCC827 [14]) was 68.63% and the inhibition [15] was less than 70%. For the same compound, the inhibition [16] was 88.6%, the Activity (HCC827 [17]) was 16.41% and the Activity (HCC827 [18]) was 12.31%. For the same compound, the Activity [19] was “Non-Toxic”, the inhibition (Homo sapiens) was less than 70% and the Activity (HCC827 [20]) was 6.32%. For the same compound, the inhibition [21] was less than 70%, the IC50 [22] was 43.9 nM and the Activity (HCC827 [23]) was 10.4%. For the same compound, the Activity (HCC827 [24]) was 6.5%, the IC50 (HCC827 [25]) was 24.6 nM and the viability at 0.1 µM (HCC827 [26]) was 76%. For the same compound, the inhibition [27] was less than 70% and the viability at 0.01 µM (HCC827 [28]) was 77.6%.
